Reference: patent publication US10092596B2, “Tungstate treatment of the dysbiosis associated with gastrointestinal inflammation” (THE REGENTS OF THE UNIVERSITY OF CALIFORNIA, priority 2013, dated 2018)
Read-outs that look alike come from different tables or passages of the source.

Tests used:
[1] = Inflammation and morbidity in DSS-treated mice infected with LF82; format: in vivo, mice (C57BL/6); details: AG or tungstate in water, NAC in chow
Procedure: The development of intestinal inflammation can be followed as described below. The severity of inflammatory changes in the cecum and the colon are assessed by several independent approaches at three, five and seven days after inoculation. First, the relative transcript levels of genes encoding neutrophil chemoattractants (i.e., genes encoding the CXC-chemokines Kc and the Mip2) and iNOS (Nos2) are determined (see, e.g., 62, 64). Second, to monitor, on the protein level, how inflammatory markers increase after DSS treatment, expression levels of iNOS and myeloperoxidase (MPO) are analyzed in protein samples extracted from the colonic mucosa by Western blot using anti-iNOS antibodies (Abcam), anti-MPO antibodies (R&D systems), and anti-tubulin as a loading control (64). Third, concentrations of the neutrophil-specific enzyme MPO in fecal pellets are measured by ELISA. This can serve as an indicator for the degree of neutrophil transmigration into the intestinal lumen over time (6, 42). Finally, pathological changes in the colonic mucosa are assessed through standardized, blinded scoring of formalin-fixed, hematoxylin and eosin-stained sections by a veterinary pathologist (64).

[2] = system: nitrate/nitrite; assay: Nitrate/nitrite concentration in the cecal mucus of DSS-treated mice; format: in vivo; details: AG in drinking water
Excerpt: Bars represent geometric means±standard error. *, P<0.05; **, P<0.01.
To determine whether the availability of nitrate increases during DSS colitis, the concentration of nitrate/nitrite in the colonic mucus of mock-treated and DSS-treated mice was examined. […] The results supported the idea that the inflammatory host response generates respiratory electron acceptors in the large bowel.
(§1) Since the fitness advantage conferred by nitrate respiration was abrogated in Nos2-deficent mice (FIG. 2), the ability of inhibiting nitrate respiration in vivo was tested by supplementing the drinking water of mice with the iNOS inhibitor aminoguanidine (AG).

[3] = system: E. coli Nissle 1917 and narG napA narZ mutant; assay: Competitive infection of DSS-treated mice with E. coli Nissle 1917 and its nitrate respiration-deficient mutant; format: in vivo; details: AG in drinking water, five days after infection
Procedure: Mice were mock-treated or treated with dextran sulfate sodium (DSS) or DSS+aminoguanidine (AG) and infected with equal mixtures of the indicated E. coli strains. Five days after infection, the ratio of wild-type (wt) and mutant recovered from colon contents was determined (competitive index). Bars represent geometric means±standard error.
Next, mock-treated mice (C57BL/6) or mice with DSS-induced colitis were inoculated with an equal mixture of E. coli Nissle 1917 and its isogenic nitrate respiration-deficient mutant (competitive infection design). Wild type and nitrate respiration-deficient mutant strains colonized the intestine of normal mice poorly, but similar numbers of each strain were recovered from colon contents (FIG. 2). […] Thus, nitrate respiration enhanced the fitness of E. coli in the inflamed gut.
as §1

[4] = system: AIEC strain LF82; details: DSS-treated mice infected with LF82, tungstate in water
Procedure: Groups of 6 DSS-treated mice (C57BL/6) were provided with water or water supplemented with AG or tungstate and fed regular chow or chow supplemented with NAC. Mice were then inoculated with wild-type LF82 or sterile medium (mock-infection) and organs were collected at three, five and seven days after infection.
In addition, colony forming units (CFU) of E. coli are determined by spreading homogenates of colon contents on plates containing the appropriate antibiotics (all LF82 derivatives are marked with a kanamycin resistance cassette inserted downstream of the lac operon).

[5] = Body weight in the DSS-colitis model; format: in vivo, C57BL/6 mice; details: 3% DSS, tungstate 0.2% in drinking water, after 8 days of DSS treatment
Excerpt: To determine whether the administration of soluble tungsten (W) salts can abolish anaerobic respiration and thus blunt the bloom of Enterobacteriaceae in vivo, a murine model of chemically-induced colitis, the dextran sulfate sodium (DSS) colitis model, was employed. Oral administration of DSS in the drinking water induces a vigorous intestinal inflammatory response that is accompanied by a bloom of commensal Enterobacteriaceae (3). Groups of C57BL/6 mice received DSS-supplemented (2 or 3%) drinking water or received DSS-supplemented (2 or 3%) drinking water with sodium tungstate (0.2%) added. After onset of inflammation (4 days after start of the treatment), mice were intragastrically inoculated with a 1:1 mixture of the E. coli Nissle 1917 wild-type and an isogenic moaA mutant deficient for molybdopterin cofactor biosynthesis. Utilization of these non-pathogenic indicator strains allows a determination of the growth advantage conferred through anaerobic respiration by comparing colonization with the wild-type strain with an anaerobic respiration-deficient mutant (moaA mutant) (3). 5 days after inoculation of mice, animals were euthanized and colonization with the E. coli indicator strains determined by cultivation on selective media (each of the strains is marked with a different antibiotic resistance gene) (FIG. 10). […]

[6] = system: E. coli Nissle 1917 wild-type and moaA mutant; assay: DSS colitis model, colonization with E. coli indicator strains (wild-type and moaA mutant, 1:1); format: in vivo
Excerpt: To determine whether the administration of soluble tungsten (W) salts can abolish anaerobic respiration and thus blunt the bloom of Enterobacteriaceae in vivo, a murine model of chemically-induced colitis, the dextran sulfate sodium (DSS) colitis model, was employed. Oral administration of DSS in the drinking water induces a vigorous intestinal inflammatory response that is accompanied by a bloom of commensal Enterobacteriaceae (3). Groups of C57BL/6 mice received DSS-supplemented (2 or 3%) drinking water or received DSS-supplemented (2 or 3%) drinking water with sodium tungstate (0.2%) added. After onset of inflammation (4 days after start of the treatment), mice were intragastrically inoculated with a 1:1 mixture of the E. coli Nissle 1917 wild-type and an isogenic moaA mutant deficient for molybdopterin cofactor biosynthesis. Utilization of these non-pathogenic indicator strains allows a determination of the growth advantage conferred through anaerobic respiration by comparing colonization with the wild-type strain with an anaerobic respiration-deficient mutant (moaA mutant) (3). 5 days after inoculation of mice, animals were euthanized and colonization with the E. coli indicator strains determined by cultivation on selective media (each of the strains is marked with a different antibiotic resistance gene) (FIG. 10).
To further test the efficacy of tungstate treatment, E. coli indicator strains that were either proficient for anaerobic respiration (E. coli Nissle 1917 wild-type) or deficient for nitrate respiration, DMSO respiration, and TMAO respiration due to a mutation in one of the molybdopterin cofactor biosynthesis genes (E. coli Nissle 1917 moaA mutant) were used. Groups of mice with DSS-induced colitis were inoculated with an equal mixture of both E. coli indicator strains (i.e., wild-type and moaA mutant) and received either regular water (vehicle control) or drinking water containing 2 g/l sodium tungstate (Na2WO4×2H2O; Sigma-Aldrich, St. Louis, Mo., USA) to receive a calculated average dose of 130 mg/kg/day (assuming 2.6 ml of water intake per day for each animal). These experiments determined whether anaerobic respiration would provide a fitness advantage upon the E. coli wild-type over the moaA mutant in the inflamed intestine of DSS-treated mice. Furthermore, if tungstate treatment would inhibit anaerobic respiration, these experiments determined whether this fitness advantage would be eliminated and both strains would be recovered at a 1:1 ratio. In other words, the use of E. coli indicator strains as described herein enabled the determination of whether tungstate treatment would block growth by anaerobic respiration in vivo.

[7] = system: nitrate reductase; assay: Nitrate reductase activity in E. coli Nissle 1917 cultures (modified Griess assay); format: cell-based; details: LB broth with 40 mM nitrate, microaerobic, 3 h at 37° C.; versus mock-treated cultures
Excerpt: In E. coli, the respiratory reductases for nitrate, DMSO and TMAO as well as the formate dehydrogenases FdnG and FdoG contain molybdenum (Mo) as a key catalyst for electron transfer reactions (7). The functions of FdnG and FdoG are linked to respiration, because these two formate dehydrogenases couple respiratory electron acceptors to the electron donor formate, a fermentation end product present in the large intestine. Formate dehydrogenases and respiratory reductases contain Mo within a molybdopterin cofactor. Tungsten (W) has chemical properties similar, but not identical, to Mo. […] To test whether the addition of W (as the soluble sodium salt Na2WO4; sodium tungstate) to bacterial growth media can inhibit anaerobic nitrate respiration, aliquots of LB broth supplemented with 40 mM nitrate and varying concentrations of tungstate were inoculated with the E. coli Nissle 1917 wild-type strain and incubated under microaerobic conditions for 3 h at 37° C. (3). Nitrate reductase activity was assayed using a modified Griess assay (9) (FIG. 9).

[8] = system: Kc; assay: Kc transcript levels in the cecal mucosa of DSS-treated conventional mice (real-time PCR); format: in vivo; details: 4% DSS for 9 days
Excerpt: (§2) (13A-C) Conventional mice received 4% DSS alone (DSS) or in combination with sodium tungstate (DSS+Na2WO4) for 9 days. (13D) Germ-free mice received 1% DSS or 1% DSS+Na2WO4 for five days. (13A) Average histopathology score from the cecum.
(§3) This reduction was remarkable, because DSS treatment induces cecal inflammation by a mechanism that is only partially dependent on the presence of microbiota (10). In other words, DSS treatment causes inflammation in germ-free mice, but inflammation is exacerbated by the presence of microbiota. Thus, by inhibiting the microbiota-dependent component of inflammation, one can only expect to achieve a reduction in inflammation, but not a resolution of inflammation. Thus, given the marked pathology observed in DSS-treated germ-free mice (10), the reduction of cecal pathology after tungsten treatment was remarkable.

[9] = system: Tnfa; assay: Tnfa transcript levels in the cecal mucosa of DSS-treated mice (real-time PCR); format: in vivo; details: conventional mice, 4% DSS for 9 days
Excerpt: as §2, §3

[10] = system: facultative anaerobic bacteria; assay: Microbial community profiling in mouse colitis models (16S rRNA gene sequences); format: in vivo; details: mice with severe colitis (DSS or oxazolone) treated with tungstate
Excerpt: To investigate whether changes in the microbial communities that develop during inflammation are due to anaerobic respiration, the temporal dynamics of the entire gut community can be monitored in mouse models of colitis. In particular, colitis can be induced by DSS treatment or hapten-induced (oxazolone-treatment) in wild type and Nos2-deficient mice, including those that are additionally exposed to tungstate, AG, or NAC. The experiments can be performed as follows.
Wild type mice (C57BL/6) and Nos2-deficient mice are co-housed for two weeks to reduce the variation in the microbial community structure prior to inducing inflammation. Feces are collected from all animals for DNA isolation to establish a baseline of the microbiota composition at the beginning of the experiment. Six mice from each mouse strain (C57BL/6 mice or Nos2-deficient mice) are euthanized to isolate bacterial DNA from cecal and colon contents and to establish a baseline for inflammatory host responses using the methods described above (see, Section 5). Groups of mice from each mouse strain (e.g., C57BL/6 mice or Nos2-deficient mice) are treated with 4% DSS in drinking water or are “mock-treated” (i.e., mice will receive drinking water without DSS). […]
The development of intestinal inflammation is monitored using methods described above (see, Section 5). […]

[11] = system: Kc; assay: Kc transcript levels in the cecal mucosa of DSS-treated germ-free mice; format: in vivo; details: 1% DSS, 5 days after the beginning of DSS treatment
Procedure: as §2
The key experiment to distinguish between these two possibilities is to test whether tungstate treatment reduces inflammation in germ-free mice. To this end, groups of four germ-free mice were treated with 1% DSS, 1% DSS+sodium tungstate, or drinking water without supplementation.

[12] = oral, 100 mg twice a day for 6 weeks, cited from earlier work
[13] = Histopathology score of the cecum in DSS-treated conventional mice; format: in vivo; details: 4% DSS for 9 days, blinded scoring
Excerpt: as §2, §3

[14] = system: neutrophils; details: in vivo; cited from earlier work
[15] = system: neutrophils; details: in vitro; cited from earlier work
[16] = sodium tungstate 0.2% in drinking water, DSS 2 or 3%, 5 days after inoculation

SMILES: N=C(N)NN [AG, aminoguanidine]
- inflammation and morbidity [1]: intermediate effect
- availability of nitrate/nitrite in the large bowel [2]: markedly reduced
- fitness advantage conferred by nitrate respiration (competitive index) [3]: abrogated the fitness advantage

SMILES: [Na+].[Na+].[O]=[W](=[O])([O-])[O-] [sodium tungstate]
- inflammation and morbidity [1]: reducing inflammation and morbidity
- growth of AIEC by anaerobic respiration [4]: reduction in the growth of AIEC
- body weight [5]: > 90 % of starting weight
- absolute numbers of E. coli recovered from colon contents (bloom) ([6]; DSS+Na2WO4 versus DSS alone, FIG. 12B): prevented facultative anaerobic bacteria from blooming
- competitive index (ratio of wild-type to moaA mutant) recovered from colon contents ([6]; DSS-induced colitis, drinking water with 2 g/l sodium tungstate (130 mg/kg/day)): both strains were recovered in equal numbers
- recovery of wild-type versus moaA mutant from colon content [6, 16]: both strains were recovered at similar numbers
- total number of E. coli indicator strains recovered from colon content [6, 16]: significantly diminished
- tungstate concentration at which nitrate reductase activity was significantly reduced [7]: exceeding 10 ng/ml
- induction of Kc in the cecal mucosa [8]: abrogated induction
- transcript levels of Tnfa in the cecal mucosa [9]: blunting of transcript levels
- increased abundance of facultative anaerobic bacteria associated with inflammation [10]: not observed
- levels of pro-inflammatory cytokines (Kc transcript) [11]: did not reduce
- body weight ([12]; human obesity): did not reduce body weight
- safety parameters ([12]; human): not associated with abnormal safety parameters
- overall pathology score of the cecal mucosa [13]: significant (P<0.05) reduction

SMILES: CC(=O)N[C@@H](CS)C(=O)O [NAC, N-acetylcysteine]
- inflammation and morbidity [1]: intermediate effect
- oxidative burst activity of neutrophils [14]: suppress the oxidative burst activity
- concentration that almost completely inhibits the oxidative response of neutrophils to E. coli [15]: 76 mM
